Laboratory results reported in patent US9999656B2, “Treatment of short bowel syndrome patients with colon-in-continuity” (Shire-NPS Pharmaceuticals, Inc., priority 2004, dated 2018).

Test: Half-life / AUC (pharmacokinetics)
Assay type: in vivo
Description: This greater effect could be related to differences in dose and half-life of GLP-2 and teduglutide, respectively. In the pilot study with native GLP-2, 400 μg was given twice daily (corresponding to 0.013±0.002 mg/kg/day, a range of 0.011-0.017 mg/kg/day). The teduglutide doses in the current study were 3-10 times higher, ranging from 0.03 to 0.15 mg/kg/day. […] If area under the curve (AUC) is critical for the wet weight absorption effect, the AUC during teduglutide treatment may well be 200 times greater than the AUC when using native GLP-2. In this study, effects of teduglutide on energy and macronutrient absorption were minor compared to effects on wet weight absorption. […] Nonetheless, the effect of teduglutide on absolute energy absorption is 1.5 to 4-fold higher than with native GLP-2 (441±634 kJ/day ([105±151 kcal/day] p=0.09) at the given doses and treatment periods. Thus, in contrast to H2-receptor antagonists, proton-pump inhibitors and octreotide that only affect wet weight absorption, native GLP-2 and teduglutide seem to affect both intestinal wet weight and energy absorption, with an additional positive effect on wet weight absorption in patients already treated with these non-GLP-2 agonists.

In the case of CC[C@H](C)[C@H](NC(=O)[C@H](Cc1ccccc1)NC(=O)[C@H](CC(=O)O)NC(=O)[C@H](CCCNC(=N)N)NC(=O)[C@H](C)NC(=O)[C@H](C)NC(=O)[C@H](CC(C)C)NC(=O)[C@H](CC(N)=O)NC(=O)[C@H](CC(=O)O)NC(=O)[C@H](CC(C)C)NC(=O)[C@@H](NC(=O)[C@@H](NC(=O)[C@H](CC(N)=O)NC(=O)[C@H](CCSC)NC(=O)[C@H](CCC(=O)O)NC(=O)[C@H](CC(=O)O)NC(=O)[C@H](CO)NC(=O)[C@H](Cc1ccccc1)NC(=O)[C@H](CO)NC(=O)CNC(=O)[C@H](CC(=O)O)NC(=O)CNC(=O)[C@@H](N)Cc1c[nH]cn1)[C@@H](C)O)[C@@H](C)CC)C(=O)N[C@@H](CC(N)=O)C(=O)N[C@@H](Cc1c[nH]c2ccccc12)C(=O)N[C@@H](CC(C)C)C(=O)N[C@H](C(=O)N[C@@H](CCC(N)=O)C(=O)N[C@H](C(=O)N[C@@H](CCCCN)C(=O)N[C@H](C(=O)N[C@H](C(=O)N[C@@H](CC(=O)O)C(=O)O)[C@@H](C)O)[C@@H](C)CC)[C@@H](C)O)[C@@H](C)CC [teduglutide, [Gly2]hGLP-2], the “AUC during teduglutide treatment relative to AUC using native GLP-2” value ('may well be', estimate) is reported as ~200 times and the half-life (human, plasma, teduglutide, approximately) is reported as 0.9 to 2.3 h.
